Source: patent US20050014706A1, “Method of treating tuberculosis” (priority 2003, published 2005)
≈ marks a conversion by molar mass, not a printed value.

Tested on: M. tuberculosis H37Rv
Test: MIC vs. M. tuberculosis H37Rv, microplate Alamar Blue assay (MABA)
Type: cell-based
Conditions: Table 3, parallel-synthesis carbazate library products

SMILES	MIC
CC[C@H]1OC(=O)[C@H](C)[C@@H](O[C@H]2CC(C)(OC)[C@@H](O)[C@H](C)O2)[C@H](C)[C@@H](O[C@@H]2O[C@H](C)C[C@H](N(C)C)[C@H]2O)[C@](C)(OC)C[C@@H](C)C(=O)[C@H](C)[C@H]2N(NCCCc3ccccc3)C(=O)O[C@]12C (stereo partly shown) [A2′]	10 µM (≈ 9.06 µg/mL)
CC[C@H]1OC(=O)[C@H](C)[C@@H](O[C@H]2CC(C)(OC)[C@@H](O)[C@H](C)O2)[C@H](C)[C@@H](O[C@@H]2O[C@H](C)C[C@H](N(C)C)[C@H]2O)[C@](C)(OC)C[C@@H](C)C(=O)[C@H](C)[C@H]2N(NC/C=C/c3ccccc3)C(=O)O[C@]12C (stereo partly shown) [A4′]	7 µM (≈ 6.33 µg/mL)
CC[C@H]1OC(=O)[C@H](C)[C@@H](O[C@H]2CC(C)(OC)[C@@H](O)[C@H](C)O2)[C@H](C)[C@@H](O[C@@H]2O[C@H](C)C[C@H](N(C)C)[C@H]2O)[C@](C)(OC)C[C@@H](C)C(=O)[C@H](C)[C@H]2N(NC/C=C/c3cc(OC)c(O)c(OC)c3)C(=O)O[C@]12C (stereo partly shown) [A6′]	10.2 µM (≈ 10 µg/mL)
CC[C@H]1OC(=O)[C@H](C)[C@@H](O[C@H]2CC(C)(OC)[C@@H](O)[C@H](C)O2)[C@H](C)[C@@H](O[C@@H]2O[C@H](C)C[C@H](N(C)C)[C@H]2O)[C@](C)(OC)C[C@@H](C)C(=O)[C@H](C)[C@H]2N(NCc3ccc([N+](=O)[O-])o3)C(=O)O[C@]12C (stereo partly shown) [A8′]	>9 µM
CC[C@H]1OC(=O)[C@H](C)[C@@H](O[C@H]2CC(C)(OC)[C@@H](O)[C@H](C)O2)[C@H](C)[C@@H](O[C@@H]2O[C@H](C)C[C@H](N(C)C)[C@H]2O)[C@](C)(OC)C[C@@H](C)C(=O)[C@H](C)[C@H]2N(NCc3ccoc3)C(=O)O[C@]12C (stereo partly shown) [A10′]	>7 µM
CC[C@H]1OC(=O)[C@H](C)[C@@H](O[C@H]2CC(C)(OC)[C@@H](O)[C@H](C)O2)[C@H](C)[C@@H](O[C@@H]2O[C@H](C)C[C@H](N(C)C)[C@H]2O)[C@](C)(OC)C[C@@H](C)C(=O)[C@H](C)[C@H]2N(NCc3cc(C(=O)OC)c(C)o3)C(=O)O[C@]12C (stereo partly shown) [A12′]	>12 µM
CCOC(=O)c1cc(-c2ccc(Cl)cc2)oc1CNN1C(=O)O[C@]2(C)[C@@H](CC)OC(=O)[C@H](C)[C@@H](O[C@H]3CC(C)(OC)[C@@H](O)[C@H](C)O3)[C@H](C)[C@@H](O[C@@H]3O[C@H](C)C[C@H](N(C)C)[C@H]3O)[C@](C)(OC)C[C@@H](C)C(=O)[C@H](C)[C@@H]12 (stereo partly shown) [B1′]	>18 µM
CC[C@H]1OC(=O)[C@H](C)[C@@H](O[C@H]2CC(C)(OC)[C@@H](O)[C@H](C)O2)[C@H](C)[C@@H](O[C@@H]2O[C@H](C)C[C@H](N(C)C)[C@H]2O)[C@](C)(OC)C[C@@H](C)C(=O)[C@H](C)[C@H]2N(NCc3nccn3C)C(=O)O[C@]12C (stereo partly shown) [B3′]	>18 µM
CC[C@H]1OC(=O)[C@H](C)[C@@H](O[C@H]2CC(C)(OC)[C@@H](O)[C@H](C)O2)[C@H](C)[C@@H](O[C@@H]2O[C@H](C)C[C@H](N(C)C)[C@H]2O)[C@](C)(OC)C[C@@H](C)C(=O)[C@H](C)[C@H]2N(NCc3cncn3C)C(=O)O[C@]12C (stereo partly shown) [B5′]	>27 µM
CCCCc1nc(CNN2C(=O)O[C@]3(C)[C@@H](CC)OC(=O)[C@H](C)[C@@H](O[C@H]4CC(C)(OC)[C@@H](O)[C@H](C)O4)[C@H](C)[C@@H](O[C@@H]4O[C@H](C)C[C@H](N(C)C)[C@H]4O)[C@](C)(OC)C[C@@H](C)C(=O)[C@H](C)[C@@H]23)c(Cl)[nH]1 (stereo partly shown) [B7′]	>19 µM
CC[C@H]1OC(=O)[C@H](C)[C@@H](O[C@H]2CC(C)(OC)[C@@H](O)[C@H](C)O2)[C@H](C)[C@@H](O[C@@H]2O[C@H](C)C[C@H](N(C)C)[C@H]2O)[C@](C)(OC)C[C@@H](C)C(=O)[C@H](C)[C@H]2N(NCc3c(C)[nH]c4ccc([N+](=O)[O-])cc34)C(=O)O[C@]12C (stereo partly shown) [B11′]	>22 µM
CC[C@H]1OC(=O)[C@H](C)[C@@H](O[C@H]2CC(C)(OC)[C@@H](O)[C@H](C)O2)[C@H](C)[C@@H](O[C@@H]2O[C@H](C)C[C@H](N(C)C)[C@H]2O)[C@](C)(OC)C[C@@H](C)C(=O)[C@H](C)[C@H]2N(NCc3cn(Cc4ccccc4)c4ccccc34)C(=O)O[C@]12C (stereo partly shown) [C2′]	7 µM (≈ 7.05 µg/mL)
CC[C@H]1OC(=O)[C@H](C)[C@@H](O[C@H]2CC(C)(OC)[C@@H](O)[C@H](C)O2)[C@H](C)[C@@H](O[C@@H]2O[C@H](C)C[C@H](N(C)C)[C@H]2O)[C@](C)(OC)C[C@@H](C)C(=O)[C@H](C)[C@H]2N(NCc3cn(S(=O)(=O)c4ccc(C)cc4)c4ccccc34)C(=O)O[C@]12C (stereo partly shown) [C4′]	11 µM (≈ 11.8 µg/mL)
CC[C@H]1OC(=O)[C@H](C)[C@@H](O[C@H]2CC(C)(OC)[C@@H](O)[C@H](C)O2)[C@H](C)[C@@H](O[C@@H]2O[C@H](C)C[C@H](N(C)C)[C@H]2O)[C@](C)(OC)C[C@@H](C)C(=O)[C@H](C)[C@H]2N(NCc3c(C)noc3C)C(=O)O[C@]12C (stereo partly shown) [C6′]	>17 µM
CC[C@H]1OC(=O)[C@H](C)[C@@H](O[C@H]2CC(C)(OC)[C@@H](O)[C@H](C)O2)[C@H](C)[C@@H](O[C@@H]2O[C@H](C)C[C@H](N(C)C)[C@H]2O)[C@](C)(OC)C[C@@H](C)C(=O)[C@H](C)[C@H]2N(/N=C/c3cc(-c4cccs4)on3)C(=O)O[C@]12C (stereo partly shown) [C8′]	?9 μM
CC[C@H]1OC(=O)[C@H](C)[C@@H](O[C@H]2CC(C)(OC)[C@@H](O)[C@H](C)O2)[C@H](C)[C@@H](O[C@@H]2O[C@H](C)C[C@H](N(C)C)[C@H]2O)[C@](C)(OC)C[C@@H](C)C(=O)[C@H](C)[C@H]2N(NCc3c(-c4ccccc4)noc3C)C(=O)O[C@]12C (stereo partly shown) [C10′]	12 µM (≈ 11.5 µg/mL)

SMILES	MIC
CC[C@H]1OC(=O)[C@H](C)[C@@H](O[C@H]2CC(C)(OC)[C@@H](O)[C@H](C)O2)[C@H](C)[C@@H](O[C@@H]2O[C@H](C)C[C@H](N(C)C)[C@H]2O)[C@](C)(OC)C[C@@H](C)C(=O)[C@H](C)[C@H]2N(/N=C/c3c(C)noc3-c3ccccc3)C(=O)O[C@]12C (stereo partly shown) [C12′]	9 µM (≈ 8.61 µg/mL)
CC[C@H]1OC(=O)[C@H](C)[C@@H](O[C@H]2CC(C)(OC)[C@@H](O)[C@H](C)O2)[C@H](C)[C@@H](O[C@@H]2O[C@H](C)C[C@H](N(C)C)[C@H]2O)[C@](C)(OC)C[C@@H](C)C(=O)[C@H](C)[C@H]2N(NCc3[nH]ncc3Br)C(=O)O[C@]12C (stereo partly shown) [D1′]	23 µM (≈ 21.8 µg/mL)
CC[C@H]1OC(=O)[C@H](C)[C@@H](O[C@H]2CC(C)(OC)[C@@H](O)[C@H](C)O2)[C@H](C)[C@@H](O[C@@H]2O[C@H](C)C[C@H](N(C)C)[C@H]2O)[C@](C)(OC)C[C@@H](C)C(=O)[C@H](C)[C@H]2N(NCc3c(C(F)(F)F)nn(C)c3Cl)C(=O)O[C@]12C (stereo partly shown) [D3′]	20 µM (≈ 19.7 µg/mL)
CC[C@H]1OC(=O)[C@H](C)[C@@H](O[C@H]2CC(C)(OC)[C@@H](O)[C@H](C)O2)[C@H](C)[C@@H](O[C@@H]2O[C@H](C)C[C@H](N(C)C)[C@H]2O)[C@](C)(OC)C[C@@H](C)C(=O)[C@H](C)[C@H]2N(NCc3c[nH]nc3-c3ccc(F)cc3)C(=O)O[C@]12C (stereo partly shown) [D5′]	25 µM (≈ 24.1 µg/mL)
CC[C@H]1OC(=O)[C@H](C)[C@@H](O[C@H]2CC(C)(OC)[C@@H](O)[C@H](C)O2)[C@H](C)[C@@H](O[C@@H]2O[C@H](C)C[C@H](N(C)C)[C@H]2O)[C@](C)(OC)C[C@@H](C)C(=O)[C@H](C)[C@H]2N(NCc3cnn(-c4ccc(F)cc4)c3C)C(=O)O[C@]12C (stereo partly shown) [D7′]	13 µM (≈ 12.7 µg/mL)
CC[C@H]1OC(=O)[C@H](C)[C@@H](O[C@H]2CC(C)(OC)[C@@H](O)[C@H](C)O2)[C@H](C)[C@@H](O[C@@H]2O[C@H](C)C[C@H](N(C)C)[C@H]2O)[C@](C)(OC)C[C@@H](C)C(=O)[C@H](C)[C@H]2N(NCc3cccnc3)C(=O)O[C@]12C (stereo partly shown) [D9′]	>15 µM
CC[C@H]1OC(=O)[C@H](C)[C@@H](O[C@H]2CC(C)(OC)[C@@H](O)[C@H](C)O2)[C@H](C)[C@@H](O[C@@H]2O[C@H](C)C[C@H](N(C)C)[C@H]2O)[C@](C)(OC)C[C@@H](C)C(=O)[C@H](C)[C@H]2N(NCc3ccnc4ccccc34)C(=O)O[C@]12C (stereo partly shown) [D11′]	16 µM (≈ 14.9 µg/mL)
CC[C@H]1OC(=O)[C@H](C)[C@@H](O[C@H]2CC(C)(OC)[C@@H](O)[C@H](C)O2)[C@H](C)[C@@H](O[C@@H]2O[C@H](C)C[C@H](N(C)C)[C@H]2O)[C@](C)(OC)C[C@@H](C)C(=O)[C@H](C)[C@H]2N(NCc3cnccc3NC(=O)C(C)(C)C)C(=O)O[C@]12C (stereo partly shown) [E2′]	>27 µM
CC[C@H]1OC(=O)[C@H](C)[C@@H](O[C@H]2CC(C)(OC)[C@@H](O)[C@H](C)O2)[C@H](C)[C@@H](O[C@@H]2O[C@H](C)C[C@H](N(C)C)[C@H]2O)[C@](C)(OC)C[C@@H](C)C(=O)[C@H](C)[C@H]2N(NCc3cccnc3NC(=O)C(C)(C)C)C(=O)O[C@]12C (stereo partly shown) [E4′]	>27 µM
CC[C@H]1OC(=O)[C@H](C)[C@@H](O[C@H]2CC(C)(OC)[C@@H](O)[C@H](C)O2)[C@H](C)[C@@H](O[C@@H]2O[C@H](C)C[C@H](N(C)C)[C@H]2O)[C@](C)(OC)C[C@@H](C)C(=O)[C@H](C)[C@H]2N(/N=C/c3cnc(-c4ccccc4)nc3C)C(=O)O[C@]12C (stereo partly shown) [E6′]	5 µM (≈ 4.84 µg/mL)
CC[C@H]1OC(=O)[C@H](C)[C@@H](O[C@H]2CC(C)(OC)[C@@H](O)[C@H](C)O2)[C@H](C)[C@@H](O[C@@H]2O[C@H](C)C[C@H](N(C)C)[C@H]2O)[C@](C)(OC)C[C@@H](C)C(=O)[C@H](C)[C@H]2N(NCc3c[nH]c(=O)[nH]c3=O)C(=O)O[C@]12C (stereo partly shown) [E8′]	>20 µM
CC[C@H]1OC(=O)[C@H](C)[C@@H](O[C@H]2CC(C)(OC)[C@@H](O)[C@H](C)O2)[C@H](C)[C@@H](O[C@@H]2O[C@H](C)C[C@H](N(C)C)[C@H]2O)[C@](C)(OC)C[C@@H](C)C(=O)[C@H](C)[C@H]2N(NCc3cccn3CCC#N)C(=O)O[C@]12C (stereo partly shown) [E10′]	20 µM (≈ 18.4 µg/mL)
CC[C@H]1OC(=O)[C@H](C)[C@@H](O[C@H]2CC(C)(OC)[C@@H](O)[C@H](C)O2)[C@H](C)[C@@H](O[C@@H]2O[C@H](C)C[C@H](N(C)C)[C@H]2O)[C@](C)(OC)C[C@@H](C)C(=O)[C@H](C)[C@H]2N(NCc3cccn3-c3ccc(Cl)cc3)C(=O)O[C@]12C (stereo partly shown) [E12′]	3.4 µM (≈ 3.32 µg/mL)
CC[C@H]1OC(=O)[C@H](C)[C@@H](O[C@H]2CC(C)(OC)[C@@H](O)[C@H](C)O2)[C@H](C)[C@@H](O[C@@H]2O[C@H](C)C[C@H](N(C)C)[C@H]2O)[C@](C)(OC)C[C@@H](C)C(=O)[C@H](C)[C@H]2N(NCc3cccn3-c3ccc(C(F)(F)F)cc3)C(=O)O[C@]12C (stereo partly shown) [F1′]	17.6 µM (≈ 17.8 µg/mL)
CC[C@H]1OC(=O)[C@H](C)[C@@H](O[C@H]2CC(C)(OC)[C@@H](O)[C@H](C)O2)[C@H](C)[C@@H](O[C@@H]2O[C@H](C)C[C@H](N(C)C)[C@H]2O)[C@](C)(OC)C[C@@H](C)C(=O)[C@H](C)[C@H]2N(NCc3sc(C)nc3C)C(=O)O[C@]12C (stereo partly shown) [F5′]	>19 µM
